According to US6355799B1, “Substituted benzene compounds, process for their preparation, and herbicidal and defoliant compositions containing them” (ISK Americas Incorporated, priority 1997, dated 2002):

Assays:
Assay type in all cases: in vivo
[1] = system: large crabgrass (Digitaria sanguinalis, DIGSA); assay: Pre-emerge test, greenhouse herbicide activity screening; settings: rated 14 days after application, 0 = no damage, 100 = complete death
Procedure, shortened: (§1)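 Compounds in acetone were track-sprayed at 15–1000 g ai/ha: pre-emergence onto soil sown the previous day, then top-watered to incorporate and later bottom-watered; post-emergence onto 2–3 leaf plants with 0.25% v/v surfactant, bottom-watered only. Ratings on a 0–100 phytotoxicity scale were taken at day 14.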

[2] = system: ivyleaf morningglory (Ipomoea hederacea, IPOHE); assay: as above; settings: rated 14 days after application, 0 = no damage, 100 = complete death
Procedure, shortened: as §1

[3] = system: common ragweed (Ambrosia artemisizfolia L., AMBEL); assay: as above; settings: rated 14 days after application, 0 = no damage, 100 = complete death
Procedure, shortened: as §1

[4] = system: green foxtail (Setaria viridis, SETVI); assay: as above; settings: rated 14 days after application, 0 = no damage, 100 = complete death
Procedure, shortened: as §1

[5] = system: velvetleaf (Abutilon theophrasti, ABUTH); assay: as above; settings: rated 14 days after application, 0 = no damage, 100 = complete death
Procedure, shortened: as §1

[6] = system: johnsongrass (Sorghum halepense, SORHA); assay: as above; settings: rated 14 days after application, 0 = no damage, 100 = complete death
Procedure, shortened: as §1

[7] = system: sicklepod (Cassia obtusifolia, CASOB); assay: as above; settings: rated 14 days after application, 0 = no damage, 100 = complete death
Procedure, shortened: as §1

[8] = system: lambsquarters (Chenopodium album, CHEAL); assay: as above; settings: rated 14 days after application, 0 = no damage, 100 = complete death
Procedure, shortened: as §1

[9] = system: barnyardgrass (Echinochloa crus-galli, ECHCG); assay: as above; settings: rated 14 days after application, 0 = no damage, 100 = complete death
Procedure, shortened: as §1

[10] = system: upland rice (Oryza sp., var. Tebonnet, RICE); assay: Pre-emerge test, crop safety; settings: rated 14 days after application, 0 = no damage, 100 = complete death
Procedure, shortened: (§2)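 Herbicidal damage is scored 0 (none) to 100 (complete plant death) two weeks after a simulated field spray. Rates span 15–1000 g ai/ha, delivered in acetone at 187 l/ha. For post-emergence treatments, plants have 2–3 leaves and the spray carries 0.25% v/v non-ionic surfactant.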

[11] = system: field corn (Zea mays L., var. Dekalb 535, CORN); assay: Pre-emerge test, crop safety; settings: rated 14 days after application, 0 = no damage, 100 = complete death
Procedure, shortened: as §2

[12] = system: large crabgrass (Digitaria sanguinalis, DIGSA); assay: Post-emerge test, greenhouse herbicide activity screening; settings: post-emerge, 14 days after application, rating scale 0-100
Procedure, shortened: (§3)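 Plants grown in 10 cm pots of sandy loam mix received acetone-dissolved compounds through a moving flat-fan nozzle. Doses ranged from 15 to 1000 g ai/ha. Pre-emerge pots were seeded one day earlier, post-emerge pots 8–21 days earlier. Fourteen days on, each pot was graded 0–100 for damage.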

[13] = system: ivyleaf morningglory (Ipomoea hederacea, IPOHE); assay: as above; settings: post-emerge, 14 days after application, rating scale 0-100
Procedure, shortened: as §3

[14] = system: common ragweed (Ambrosia artemisizfolia L., AMBEL); assay: as above; settings: post-emerge, 14 days after application, rating scale 0-100
Procedure, shortened: as §3

[15] = system: green foxtail (Setaria viridis, SETVI); assay: as above; settings: post-emerge, 14 days after application, rating scale 0-100
Procedure, shortened: as §3

[16] = system: velvetleaf (Abutilon theophrasti, ABUTH); assay: as above; settings: post-emerge, 14 days after application, rating scale 0-100
Procedure, shortened: as §3

[17] = system: johnsongrass (Sorghum halepense, SORHA); assay: as above; settings: post-emerge, 14 days after application, rating scale 0-100
Procedure, shortened: as §3

[18] = system: redroot pigweed (Amaranthus retroflexus, AMARE); assay: as above; settings: post-emerge, 14 days after application, rating scale 0-100
Procedure, shortened: as §3

[19] = system: sicklepod (Cassia obtusifolia, CASOB); assay: as above; settings: post-emerge, 14 days after application, rating scale 0-100
Procedure, shortened: as §3

[20] = system: lambsquarters (Chenopodium album, CHEAL); assay: as above; settings: post-emerge, 14 days after application, rating scale 0-100
Procedure, shortened: as §3

[21] = system: barnyardgrass (Echinochloa crus-galli, ECHCG); assay: as above; settings: post-emerge, 14 days after application, rating scale 0-100
Procedure, shortened: as §3

[22] = system: upland rice (Oryza sp., var. Tebonnet, RICE); assay: Post-emerge test, crop safety; settings: post-emerge, 14 days after application, rating scale 0-100
Procedure, shortened: (§4)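 Rating: 0–100 visual injury, 14 DAA. Application: acetone, 187 l/ha, 15–1000 g ai/ha, flat-fan track sprayer with nozzle 40–45 cm above soil or canopy. Post-emerge runs used 0.25% v/v surfactant on 2–3 leaf plants.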

[23] = system: field corn (Zea mays L., var. Dekalb 535, CORN); assay: Post-emerge test, crop safety; settings: post-emerge, 14 days after application, rating scale 0-100
Procedure, shortened: as §4

[24] = system: redroot pigweed (Amaranthus retroflexus, AMARE); assay: Pre-emerge test, greenhouse herbicide activity screening; settings: rated 14 days after application, 0 = no damage, 100 = complete death
Procedure, shortened: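 Sandy loam pots; pre-emerge: sown 1 d pre-spray, surface-watered after, then bottom-watered. Post-emerge: sown 8–21 d before, 2–3 leaf stage, + 0.25% v/v NIS, bottom-watered. Acetone, 187 l/ha track spray, 15–1000 g ai/ha. 0–100 injury score, day 14.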

COc1c(Cl)cc(F)c(-n2c(=O)cc(C(F)(F)F)n(C)c2=O)c1NC(=O)c1ccc(F)cc1F [Compound 2-42, 3-[4-chloro-2-(2,4difluorobenzoyl)amino-6-fluoro-3-methoxyphenyl]-1-methyl-6-trifluoromethyl-2,4(1H 3H)-pyrimidinedione]
95: Pre-emerge Herbicidal Activity, phytotoxicity rating (0-100), SORHA ([6]; 63 g ai/ha) | phytotoxicity rating AMBEL ([14]; 250 g ai/ha) | phytotoxicity rating SORHA ([17]; 250 g ai/ha) | phytotoxicity rating AMARE ([18]; 63 g ai/ha)
60: phytotoxicity rating RICE ([22]; 63 g ai/ha) | phytotoxicity rating CORN ([23]; 250 g ai/ha)
50: phytotoxicity rating SETVI ([15]; 63 g ai/ha)
30: phytotoxicity rating DIGSA ([12]; 250 g ai/ha) | phytotoxicity rating ECHCG ([21]; 63 g ai/ha)
99: Pre-emerge phytotoxicity rating (0-100), crop damage, RICE ([10]; 250 g ai/ha)
65: phytotoxicity rating CASOB ([19]; 63 g ai/ha)
98: Pre-emerge phytotoxicity rating (0-100), crop damage, CORN ([11]; 250 g ai/ha)
80: Pre-emerge Herbicidal Activity, phytotoxicity rating (0-100), CASOB ([7]; 63 g ai/ha) | phytotoxicity rating SETVI ([15]; 250 g ai/ha) | phytotoxicity rating ECHCG ([21]; 250 g ai/ha)
70: phytotoxicity rating AMBEL ([14]; 63 g ai/ha)
100: Pre-emerge Herbicidal Activity, phytotoxicity rating (0-100), DIGSA ([1]; 63 g ai/ha) | Pre-emerge Herbicidal Activity, phytotoxicity rating (0-100), DIGSA ([1]; 250 g ai/ha) | Pre-emerge Herbicidal Activity, phytotoxicity rating (0-100), IPOHE ([2]; 63 g ai/ha) | Pre-emerge Herbicidal Activity, phytotoxicity rating (0-100), IPOHE ([2]; 250 g ai/ha) | Pre-emerge Herbicidal Activity, phytotoxicity rating (0-100), AMBEL ([3]; 63 g ai/ha) | Pre-emerge Herbicidal Activity, phytotoxicity rating (0-100), AMBEL ([3]; 250 g ai/ha) | Pre-emerge Herbicidal Activity, phytotoxicity rating (0-100), SETVI ([4]; 63 g ai/ha) | Pre-emerge Herbicidal Activity, phytotoxicity rating (0-100), SETVI ([4]; 250 g ai/ha) | Pre-emerge Herbicidal Activity, phytotoxicity rating (0-100), ABUTH ([5]; 63 g ai/ha) | Pre-emerge Herbicidal Activity, phytotoxicity rating (0-100), ABUTH ([5]; 250 g ai/ha) | Pre-emerge Herbicidal Activity, phytotoxicity rating (0-100), SORHA ([6]; 250 g ai/ha) | Pre-emerge Herbicidal Activity, phytotoxicity rating (0-100), CASOB ([7]; 250 g ai/ha) | Pre-emerge Herbicidal Activity, phytotoxicity rating (0-100), CHEAL ([8]; 63 g ai/ha) | Pre-emerge Herbicidal Activity, phytotoxicity rating (0-100), CHEAL ([8]; 250 g ai/ha) | Pre-emerge Herbicidal Activity, phytotoxicity rating (0-100), ECHCG ([9]; 63 g ai/ha) | Pre-emerge Herbicidal Activity, phytotoxicity rating (0-100), ECHCG ([9]; 250 g ai/ha) | phytotoxicity rating IPOHE ([13]; 63 g ai/ha) | phytotoxicity rating IPOHE ([13]; 250 g ai/ha) | phytotoxicity rating ABUTH ([16]; 63 g ai/ha) | phytotoxicity rating ABUTH ([16]; 250 g ai/ha) | phytotoxicity rating AMARE ([18]; 250 g ai/ha) | phytotoxicity rating CASOB ([19]; 250 g ai/ha) | phytotoxicity rating CHEAL ([20]; 250 g ai/ha) | Pre-emerge Herbicidal Activity, phytotoxicity rating (0-100), AMARE ([24]; 63 g ai/ha) | Pre-emerge Herbicidal Activity, phytotoxicity rating (0-100), AMARE ([24]; 250 g ai/ha)
10: phytotoxicity rating SORHA ([17]; 63 g ai/ha) | phytotoxicity rating CORN ([23]; 63 g ai/ha)
85: Pre-emerge phytotoxicity rating (0-100), crop damage, CORN ([11]; 63 g ai/ha)
90: Pre-emerge phytotoxicity rating (0-100), crop damage, RICE ([10]; 63 g ai/ha) | phytotoxicity rating CHEAL ([20]; 63 g ai/ha) | phytotoxicity rating RICE ([22]; 250 g ai/ha)
0: phytotoxicity rating DIGSA ([12]; 63 g ai/ha)
